Counter-ions that a name gives are not always drawn. Like-named read-outs stand apart in the source and are kept apart here. Peptide text beside a SMILES is read from it. * marks the point of attachment. Cbz = O=C(OCc1ccccc1)*
How the values were obtained:
[1] = test system: HeLa cells co-transfected with a luciferase construct together with Q79-GFP; assay: Protein synthesis by luciferase activity in Q79 expressing HeLa cells; type: cell-based
GST-Q81 beads = assay: Chemical absorption assay, Q81; type: binding; settings: 25 μM of each (FIG. 6B)
Procedure: FIG. 6B is a graph of the percent of binding of various compounds to amyloid-like Q81 aggregates measured using a chemical absorption assay. The anti-amyloid compounds minocycline, Chrysamine G, Rolitetracycline, iota carrageenan, dextran 500 (dextran), or Congo red (25 μM of each) were pre-absorbed with Q81 GST recombinant protein and the percentage absorbance of the compound remaining in the supernatant after absorption with GST-Q81 beads is plotted on the y-axis.
To determine if Congo red and its derivatives directly bind to expanded polyglutamine aggregates, we designed a chemical absorption assay. This assay measures the remaining Congo red in the supernatant after incubating the supernatant with GST-tagged polyglutamine beads, and removing the GST-polyglutamine beads by centrifugation. This assay was carried out as follows. Recombinant protein GST-Q19, GST-Q62, and GST-Q81 (containing 19, 62, and 81 polyglutamines, respectively) was purified from E. coli by glutathione beads. After several washes with PBS containing protease inhibitors, the beads were allowed to settle to the bottom of the tube at 24° C. for 10 minutes. The polyglutamine-bound beads were aliquoted and diluted with two volumes of 10 μg/ml of Congo red in PBS. The beads were mixed and centrifuged at 15,000 rpm for 2 minutes and the supernatant was removed and diluted 1:100. The percentage absorbance of the compound remaining in the supernatant after absorption with the GST-polyQ beads was then detected. In addition, Congo red- or PBS-only treated polyglutamine polypeptide bead pellets were washed three times with 100 volumes of PBS and then the protein was separated by 12% polyacrylamide gels and immunoblotted as mentioned above. Some blots were used for immunostaining with anti-polyglutamine antibody (EM48). Other blots were left unstained to visualize the red color of Congo red that entered the gel along with the polyglutamine protein.
Binding of the above-identified compounds to amyloid-like Q81 aggregates was also assessed by a chemical absorption assay. The compounds indicated in FIG. 19 (25 μM of each) were pre-absorbed with a Q81 GST recombinant protein and the percentage absorbance of the compound remaining in the supernatant after absorption with GST-Q81 beads was then detected.

Q79-GFP aggregates = assay: Decrease of pre-formed Q79-GFP aggregates in vitro; type: biochemical; settings: 100 μM each; visually examined
Procedure: Q79-GFP was expressed and purified from bacteria using standard molecular biology techniques. These fusion proteins form aggregates in vitro which can be viewed under an inverted fluorescence microscope. The Q79-GFP aggregates were administered Congo red (1 nM to 100 μM) and the ability of Congo red to decrease the aggregate was visually assessed.
This assay was also carried out on Q79-GFP aggregates that were administered compounds known to disrupt other types of aggregates, for example, beta-amyloid fibril aggregates. The Q79-GFP aggregates were administered Iota-carrageenan, dextran, minocycline, rolitetracycline, or Chrysamine G Congo red (100 μM each), and visually examined for the effect of each compound on disruption of the aggregate, as well as the density and size of the aggregates.

[2] = test system: HeLa cells transfected with a Q79-GFP construct; assay: Polyglutamine-induced cell death in HeLa cells; type: cell-based; settings: Q79-GFP, compound added six hours after transfection, 1 nM to 100 μM (FIG. 4A: 100 μM), seventy-two hours post-transfection
Procedure: FIG. 4A is two graphs showing the effect of Congo red, tetracyclines, and sulfated polyanions on polyglutamine-induced cell death in, each graph representing a separate experiment. HeLa cells transfected with a Q79-GFP construct were treated with 100 μM of minocycline (mino), Chrysamine G (CG), Rolitetracycline (Ro), iota carrageenan (iota), dextran 500 (dextran), or Congo red (CR), six hours after transfection. The amount of cell death was determined 48 hours after transfection by morphological criteria as previously described (Sanchez et al., supra).
In a cell expressing Q79-GFP polypeptides, polyglutamine aggregates are formed and the cell dies by apoptosis (Sanchez, supra). Cell viability was determined by morphological criteria characteristic of apoptosis, including cell blebbing, shrinking. Total cell lysates and tissue homogenates were obtained using Buffer A: 1% triton in PBS, containing 10 μg/ml DNAse and protease inhibitors; leupeptin 20 μg/ml, aprotinin 20 u/ml, and PMSF 100 mM. The proteins were separated by 12% SDS/PAGE and transferred to PVDF Immobilon membrane (Millipore, Inc). Antibodies used included rabbit polyclonal antibodies; EM48 (Li et al., Mol. Neurobiol. 20:111-124, 2000) anti-heat shock proteins 40 and 70 (Stressgen, Co.), and rat monoclonal anti-caspase-8 antibody.
These effects were determined by visual inspection of GFP-positive cells under an inverted fluorescence microscope. In addition, the occurrence of apoptosis of these transfected cell samples was confirmed by staining the cells with trypan blue, propidium iodide, or Hoescht 33342 to examine the cellular or nuclear morphology.
Compounds that disrupt other types of aggregates, for example, amyloid fibril aggregates were tested for their ability to disrupt pre-formed polyglutamine aggregates. HeLa Cells were transfected with a Q79-GFP construct. Six hours later, Iota-carrageenan, dextran, minocycline, rolitetracycline, and Chrysamine G (1 nM to 100 μM) were each incubated with the cells. Seventy-two hours post-transfection, the cells were evaluated for the occurrence of cell death, by visual inspection under an inverted fluorescence microscope.

cells; primary neurons = assay: Compound toxicity in cells; type: cell-based
[3] = test system: non-transfected HeLa cells; assay: Total cellular protein degradation; type: cell-based; settings: Congo red 100 μM, ZVAD 100 μM, MG132 10 μM; H3-tyrosine release, 0 to 180 minutes
Procedure: FIG. 8C is a graph of the effect of effect of Congo red, ZVAD, or the proteosome inhibitor MG132 on total cellular protein degradation in non-transfected HeLa cells.
To rule out the possibility that Congo red may have an effect on protein degradation in general, we tested the effect of Congo red on proteosome degradation. Rates of total cellular protein degradation experiments, from cells seeded in 12 well dishes at 2×10^4, treated with Congo red (100 μM), ZVAD (100 μM), or the proteosome inhibitor MG132 (10 μM) and labeled with 5 μCi/ml of H^3-tyrosine for 1 hour. One hundred microliter culture medium aliquots were collected at 0, 30, 60, 90, 120, and 180 minute time points, and the levels of H^3-tyrosine were determined using an LS6000 scintillation counter (Beckman, Co).

[4] = Q79 expressing HeLa cells, various concentrations

Nc1ccc(/N=N/c2ccccc2)c(N)n1 [phenazopyridine] was tested. Which “protection against inhibition of protein synthesis (luciferase activity)” value (“protection against inhibition” for short) [1, 4] did it give?
Its value is “found to protect against inhibition of protein synthesis”.

With O=C(O)c1cc(/N=N/c2ccc(-c3ccc(/N=N/c4ccc(O)c(C(=O)O)c4)cc3)cc2)ccc1O [Chrysamine G] as the molecule, how does the “binding to 81-repeat polyglutamine polypeptide” value (GST-Q81 beads) read?
The value was “binds to expanded polyglutamines”.

What about the “dissolution or disruption of pre-formed expanded polyglutamine repeat aggregates” value (“dissolution or disruption” below) (Q79-GFP aggregates) of the same molecule?
The value was “detected only after Congo red addition and daunomycin addition”.

And the “Polyglutamine-induced Cell Death” value [2]?
Its value is “+++ (Each + indicates approximately 20% cell death.)”.

With O=C(CCCN1CCC(O)(c2ccc(Cl)cc2)CC1)c1ccc(F)cc1 [haloperidol] as the molecule, how does the “protection against inhibition” value [1, 4] read?
Its value is “found to protect against inhibition of protein synthesis”.

With CC(C)C[C@H]1C(=O)N2CCC[C@H]2[C@]2(O)O[C@](NC(=O)[C@@H]3C=C4c5cccc6[nH]c(Br)c(c56)C[C@H]4N(C)C3)(C(C)C)C(=O)N12 [bromocriptine mesylate] as the molecule, how does the “protection against inhibition” value ([1]; […], various concentrations) read?
Its value is “found to protect against inhibition of protein synthesis”.

Which “compound toxicity in cells” value (cells; primary neurons) does the source give for COc1cccc2c1C(=O)c1c(O)c3c(c(O)c1C2=O)C[C@@](O)(C(C)=O)C[C@@H]3O[C@H]1C[C@H](N)[C@H](O)[C@H](C)O1 [daunomycin, reference compound] here?
Its value is “highly toxic to cells”.

What about the “dissolution or disruption” value (Q79-GFP aggregates) of the same molecule?
The value was “dissolution or disruption of pre-formed expanded polyglutamine repeat aggregates were detected”.

With CCCCCCCCC(=O)NCc1ccc(O)c(OC)c1 [N-vanillylnonanmide] as the molecule, how does the “protection against inhibition” value [1] read?
Its value is “found to protect against inhibition of protein synthesis”.

C[C@H]1C[C@@H]2[C@H]([C@@H](O)C[C@@]3(C)[C@H]2CC[C@]3(O)C(=O)COC(=O)CCC(=O)O)[C@@]2(C)C=CC(=O)C=C12 [6a-methylprednisolone 21-hemisuccinate] was tested. Which “protection against inhibition” value [1, 4] did it give?
Its value is “found to protect against inhibition of protein synthesis”.

How did the “protection against inhibition” value ([1]; […], various concentrations) turn out when [O]=[Mg] [magnesium oxide] was run?
Its value is “found to protect against inhibition of protein synthesis”.

Which “protection against inhibition” value [1, 4] does the source give for C[C@]12CCC(=O)C=C1CC[C@@H]1[C@@H]2[C@@H](O)C[C@@]2(C)[C@H]1CC[C@]2(O)C(=O)CO [hydrocortisone] here?
The value was “found to protect against inhibition of protein synthesis”.

Which “protection against inhibition” value ([1]; […], various concentrations) does the source give for R-(−)-deprenyl hydrochloride here?
The value was “found to protect against inhibition of protein synthesis”.

Which “protection against inhibition” value ([1]; […], various concentrations) does the source give for C[C@H]1O[C@@H](O[C@H]2[C@@H](O)C[C@H](O[C@H]3[C@@H](O)C[C@H](O[C@H]4CC[C@@]5(C)[C@H](CC[C@@H]6[C@@H]5C[C@@H](O)[C@]5(C)[C@@H](C7=CC(=O)OC7)CC[C@]65O)C4)O[C@@H]3C)O[C@@H]2C)C[C@H](O)[C@@H]1O [digoxin] here?
The value was “found to protect against inhibition of protein synthesis”.

What does the source list for iota-carrageenan?
binding to 81-repeat polyglutamine polypeptide (GST-Q81 beads): binds to expanded polyglutamines; dissolution or disruption of pre-formed expanded polyglutamine repeat aggregates (Q79-GFP aggregates): detected only after Congo red addition and daunomycin addition; Polyglutamine-induced Cell Death [2]: +++ (Each + indicates approximately 20% cell death.)

For dextran, which “binding to 81-repeat polyglutamine polypeptide” value (GST-Q81 beads) is on record?
Its value is “binds to expanded polyglutamines”.

And the “dissolution or disruption” value (Q79-GFP aggregates)?
Its value is “detected only after Congo red addition and daunomycin addition”.

And the “Polyglutamine-induced Cell Death” value [2]?
The value was “+++ (Each + indicates approximately 20% cell death.)”.

Cn1cnc([N+](=O)[O-])c1Sc1ncnc2nc[nH]c12 [azathioprine] was tested. Which “protection against inhibition” value [1, 4] did it give?
Its value is “found to protect against inhibition of protein synthesis”.

With CC(C)C[C@@H](C=O)NC(=O)[C@H](CC(C)C)NC(=O)[C@H](CC(C)C)NC(=O)OCc1ccccc1 [MG132] (Cbz-Leu-Leu-Leu-aldehyde) as the molecule, how does the general protein degradation [3] read?
Its general protein degradation is “inhibited”.

How did the “protection against inhibition” value [1, 4] turn out when COc1ccc2cc(CCC(C)=O)ccc2c1 [nabumetone] was run?
Its value is “found to protect against inhibition of protein synthesis”.

neostigmine methyl ether was tested. Which “protection against inhibition” value ([1]; […], various concentrations) did it give?
The value was “found to protect against inhibition of protein synthesis”.

For N[C@@H]1CONC1=O [D-cycloserine], which “protection against inhibition” value [1, 4] is on record?
Its value is “found to protect against inhibition of protein synthesis”.

For CN(C)c1ccc(O)c2c1C[C@H]1C[C@H]3[C@H](N(C)C)C(O)=C(C(N)=O)C(=O)[C@@]3(O)C(O)=C1C2=O [minocycline], which “Polyglutamine-induced Cell Death” value [2] is on record?
The value was “+++ (Each + indicates approximately 20% cell death.)”.

For CCC1(c2ccccc2)C(=O)NCNC1=O [primidone], which “protection against inhibition” value [1, 4] is on record?
Its value is “found to protect against inhibition of protein synthesis”.

CN(C)[C@@H]1C(O)=C(C(=O)NCN2CCCC2)C(=O)[C@@]2(O)C(O)=C3C(=O)c4c(O)cccc4[C@@](C)(O)[C@H]3C[C@@H]12 [rolitetracycline] was tested. Which “Polyglutamine-induced Cell Death” value [2] did it give?
The value was “+++ (Each + indicates approximately 20% cell death.)”.
